Test results published in patent US8957098B2 (ALGIAX Pharmaceuticals GmbH, priority 2010, dated 2015).

What was measured:
[1] = tested on: severe spinal cord contusion injury in the rat; experiment: Explorative rearing test after severe spinal cord contusion injury; type: in vivo; details: Example 1; 20 mg/kg/day by gavage for 7 days
Protocol: Thirteen week-old female Lewis rats (Charles River, Sulzfeld Germany) were housed under a 12:12 h dark/light regime and allowed free access to water and food. After one week of habituation the animals underwent general anesthesia with a mixture of isoflurane and air (induction: 5% isoflurane, maintenance: 2.2% isofluorane). A Th10 laminectomy was performed without rupturing the dura and a severe contusive SCI (25 gem NYU/MASCIS II impactor) {Gruner, 1992 #3} was induced. After suturing muscle and skin, a subcutaneous (s.c.) injection of 5 ml of Ringers Lactate was given. Bladders were emptied manually 2 times a day until spontaneous voiding returned (usually within 1 week). The lesion severity was verified by the impact velocity and contusion depth of the impactor rod. Animals with an impact velocity error >5% were excluded from further analysis. After injury, individual rats were randomly assigned into a treatment group. The following groups were used:
When placed in a Plexiglas cylinder (18 cm diameter×35.0 cm height), animals spontaneously rear and contact the walls with their forepaws. Numbers, duration and types of rears were analyzed during the 3-min recorded observation period in the cylinder (Himes et al., 2006; Shumsky et al., 2003). A mirror was placed at an angle behind the cylinder so that the forelimbs could be viewed at all times. The testing session was videotaped, and rearing behaviour was scored blindly at a later date.
Different types of rears of increasing heights were observed: • LEVEL 1: Crouch—Animals lifted both forepaws off the ground up to 10 cm; • LEVEL 2: Rear—Animals reared and extended the trunk with the hindlimbs flexed reaching a height between 10 and 15 cm; • LEVEL 3: Stand—Animals reared and extended the trunk with the hindlimbs extended reaching a height over 15 cm.
Occasionally an animal progressed through several types of rears before touching down, in which case the time the animal spend in each rearing height was measured by counting the single video frames. […]

[2] = tested on: severe spinal cord contusion injury in the rat; experiment: BBB open field locomotor rating scale after severe spinal cord contusion injury; type: in vivo; details: Example 2; 20 mg/kg/day by gavage for 7 days; effect distinct from DPO 7 to DPO 63 (ANOVA-RM p=0.002); vehicle 8.3
Protocol: The BBB score is scaled from 0 to 21 points, a BBB score of 0 represents a complete paralysis of the hind limbs and a BBB score of 21 represents normal locomotion. […]
The BBB locomotor rating scale was used according to the present disclosure to assess general locomotor performance. The score was assessed before injury and at 1, 3, 5, 7, 14, 21, 35, 42, 49, 56 and 63 days post operation (dpo) by 2 blinded observers.

Compound	exploring time of healthy control animals at LEVEL 3 (>15 cm) compared with treated animals [1]	rearing attempts (time and height reached by forepaws) vs vehicle control animals [1]	significantly less time in LEVEL 2 (10-15 cm) when compared to healthy control animals [1]	BBB score at steady state [2]
Cc1oncc1C(=O)Nc1ccc(C(F)(F)F)cc1 [Leflunomide, N-(4-trifluoromethylphenyl)-5-methylisoxazol-4-carboxamide]	significantly longer	longer in time and that the forepaws reached higher levels	this is not the case	
Cc1cc(NC(=O)/C(C#N)=C(\O)C2CC2)ccc1C(F)(F)F [HR325, 1(3-methyl-4-trifluoromethylphenyl-carbamoyl)-2-cyclopropyl-2oxo-propionitrile]				around 10
